# Source: publication PMC4335872, “Pharmacokinetic-Pharmacodynamic Analysis of Spiroindolone Analogs and KAE609 in a Murine Malaria Model” (Antimicrobial Agents and Chemotherapy, 2015)
# Tests used:
# [1] = tested on: P. berghei GFP ANKA malaria strain PbGFPCON; test: Dose-response efficacy in the P. berghei malaria mouse model; format: in vivo, female NMRI mice; details: for Hill slope: dose vs parasitemia model; for Pmax (maximum parasitemia) / Pmin (minimum parasitemia): sigmoid dose-response model, single oral doses 24 h postinfection; for Pmax (maximum parasitemia) / Pmin (minimum parasitemia) / ED90 (effective dose causing a 90% reduction in parasitemia): parasitemia 72 h postinfection; for ED90 (effective dose causing a 90% reduction in parasitemia): single oral dose 24 h postinfection
# From the text: All in vivo studies conducted at the Swiss Tropical and Public Health Institute (TPH) adhered to local and national regulations of laboratory animal welfare in Switzerland (permission no. 1731). For in vivo efficacy, female (specific-pathogen-free) […] (NMRI) mice were obtained from Janvier, Le Genest-Saint-Isle, France. Only mice without visible signs of disease were used for the study. Standard laboratory conditions were adopted for husbandry. In vivo antimalarial activity was assessed using groups of five female NMRI mice (20 to 22 g) intravenously infected on day zero with 2 × 10^7 erythrocytes parasitized with P. berghei GFP ANKA malaria strain PbGFPCON (a donation from A. P. Waters and C. J. Janse, Leiden University) ([39]). Untreated control mice typically died between day six and day seven postinfection. Experimental compounds were formulated in 10% ethanol, 30% PEG 400, and 60% of 10% vitamin E TPGS and were administered orally in a volume of 10 ml/kg. Dose-response efficacy studies were conducted for each spiroindolone analog. Doses of 2.5, 5, 10, 30, and 100 mg/kg were administered to groups of 5 mice each as a single dose at 24 h postinfection. Parasitemia, expressed as parasitized red blood cells (pRBCs) of >100 RBCs, was determined 72 h postinfection using standard flow cytometry techniques ([39]).
# Data analysis was done using nonlinear mixed-effect modeling (NONMEM version VI 2.0), which analyzed the PD data from multiple dose groups obtained simultaneously from different experiments. Within NONMEM, first-order conditional estimation (FOCE) was the method used ([40]). The log-transformed dose and level of parasitemia were used for analysis. For each compound, a dose-response model was built, and the ED90 (effective dose lowering 90% of parasitemia) values were determined using equation 1 ([41]), where P is the parasitemia measured at any given dose, Pmax is the maximum level of parasitemia, Pmin is the minimum level of parasitemia, EZ50 is the dose required to produce 50% of the maximal effect, s is the Hill slope describing the steepness of the curve, and x is the dose (in mg/kg). 1 P=Pmin +{[Pmax−Pmin]/[1+10^(logEZ50−log x)×s]}
# [2] = In vivo PK after single p.o. and i.v. dosing in CD-1 mice; parameters: species or system female CD-1 mice; details: CD-1 mice; for CL / Vss / t1/2 (i.v.): i.v. 5 mg/kg; for F (oral bioavailability): oral 25 mg/kg vs i.v. 5 mg/kg; for AUC0–24 / Tmax / t1/2 (oral) / Cmax: single oral dose 25 mg/kg; for Cmax: plasma
# Experimental: The Institutional Animal Care and Use Committee (IACUC) of the Novartis Institute for Tropical Diseases (NITD), registered with the Agri-Food and Veterinary authority (AVA), Government of Singapore, reviewed and approved all animal experimental protocols. […] The mice were allowed to acclimate before the initiation of the experiments. Feed and water were given ad libitum. […] The blood samples from the mice were collected at 0.02 (for i.v. only), 0.08, 0.25, 0.5, 1, 2, 4, 8, 16, and 24 h postdosing. The dose proportionality studies were conducted with KAE609. […] Additional samples were collected at 32 h and 48 h postdose for the 1- and 5-mg/kg dose groups and up to 72 h postdose for the 100-mg/kg dose group. Groups of three mice were used for each time point. Blood was centrifuged at 13,000 rpm for 7 min at 4°C, and plasma was harvested and stored at -20°C until analysis. […] After vortexing and centrifuging the mixture, the supernatant was removed and 5 μl of sample analyzed. Analyte quantitation was performed by high-performance liquid chromatography coupled with tandem mass spectrometry (LC-MS/MS). […] Instrument control and data acquisition were performed using the Applied Biosystems software Analyst 1.4.2. […] Multiple-reaction monitoring (MRM) was combined with optimized MS parameters to maximize detection specificity and sensitivity. The most intense MRM transitions [338.3/295.1 for (+)-1, 370.1/327.0 for (+)-2, 370.0/326.9 for (+)-3, 354.1/310.8 for (+)-4, 354.1/311.2 for (+)-5, 372.1/329.1 for (+)-6, 388.0/331.8 for (+)-7, 372.1/316.1 for (-)-6, and 388/332 for (-)-7] were used for quantitation. Most compounds were analyzed using electrospray ionization in the negative mode, except (+)-1, which was analyzed using positive mode. The recovery of the compounds from plasma was good and consistent across the concentration range studied. The lower limits of quantification for different compounds ranged from 1.3 to 70 ng/ml in plasma. A calibration curve was freshly prepared and analyzed with every set of study samples. Intraday variability was established with triplicate quality control samples at three concentration levels. The results were accepted if relative standard deviation was <15%. The mean values of the compound concentrations in plasma were obtained from three animals at each time point and plotted against time to generate concentration-time profiles. […] The oral bioavailability (F) was calculated as the ratio between the area under the concentration-time curve from 0 to infinity (AUC0-∞) following oral administration and the AUC0-∞ following intravenous administration corrected for dose (F = […].).
# Caco-2 cells = test: Caco-2 permeability; format: in vitro ADME; details: apical to basolateral
# From the text: (§1) page 5: Running title: PreclinicalPK -PD of antimalarials 73 to high through put form at using in- house standard assa y protocols that are described in the 74 literature. 75 (a)HT-Equilibrium solubilit y at pH 6.8( 1); (b)Parallel Artificial Membrane P ermeability Assa y 76 expressed in % fraction absorbed (FA) ( 2,3 ); (c)Apparent permeability from apical to […] 78 tested; (d)intrinsic clearance in mouse liver micro somes ex pressed as µ L/ min/mg protein, in 79 the presen ce of liver enzym es ( 6); (e)Mous e plasm a protein binding using rapid equilibrium […] 81 82 83 84 85 86 87 88 89 90 91 92 93 94 95 96 97 98 5
# [3] = Mouse plasma protein binding, rapid equilibrium dialysis; format: in vitro ADME
# From the text: as §1
Compound,Hill slope [1],Pmax (maximum parasitemia) [1],Pmin (minimum parasitemia) [1],ED90 (effective dose causing a 90% reduction in parasitemia) [1] [mg/kg],CL [2] [L/h/kg],Vss [2] [L/kg],t1/2 (i.v.) [2] [h],F (oral bioavailability) [2] [%],AUC0–24 [2] [µg·h/mL],Tmax [2] [h],t1/2 (oral) [2] [h],Cmax [2] [µg/mL],Caco-2 Papp (A-B) (Caco-2 cells),Mouse PPB [3] [%]
C[C@H]1Cc2c([nH]c3ccc(Cl)cc23)[C@@]2(N1)C(=O)Nc1ccc(Cl)cc12 [(+)-2],−3.36,30.90,0.03,17.4,5.56,9.9,4.6,62,2.9,1,4.3,0.6,–,–
C[C@H]1Cc2c([nH]c3cc(Cl)ccc23)[C@@]2(N1)C(=O)Nc1ccc(Cl)cc12 [(+)-3],−6.4,24.55,0.12,17.9,3.61,13.7,4.3,91,5.8,2,6.2,0.7,41.7 10-6 cm/sec,99.7
C[C@H]1Cc2c([nH]c3ccc(F)cc23)[C@@]2(N1)C(=O)Nc1ccc(Cl)cc12 [(+)-4],−2.87,30.90,0.03,16.7,1.44,1.9,4.7,26,3.9,0.25,5.6,1.0,7.66 10-6 cm/sec,98.8
